# Assay results taken from patent publication US9993452B2, “Compositions and methods for treatment of inflammation” (Vireo Systems, Inc., priority 2014, dated 2018).
# What was measured:
# [1] = tested on: drug resistant Staphylococcus aureus (“MRSA”); settings: addition to a growth medium; cited from earlier work
# TLR-2 = settings: mouse macrophages; cited from earlier work
# TLR-4 = settings: mouse macrophages; cited from earlier work
# mouse macrophages = settings: cited from earlier work
# TNF-α protein = assay: Immunohistochemical staining of TNF-α protein expression in mouse macrophage cells (RAW 264.7); assay type: cell-based; settings: 10 mM
# Procedure: (§1) The mouse macrophage cell line, RAW 264.7 (American Tissue Type Culture Collection (ATCC); Manassas, Va.), was cultured in Dulbucco's modified Eagle's medium (DMEM; ATCC) supplemented with 10% heat inactivated fetal calf serum […] (Invitrogen; Carlsbad, Calif.), 100 μg/ml streptomycin and 100 U/ml penicillin (Invitrogen), and 2 mM L-glutamine (Invitrogen). The human T cell line, Jurkat clone E6-1 (ATCC) was cultured in RPMI-1640 medium (Invitrogen) supplemented as described above. The human monocyte cell line, THP-1 (ATCC) was cultured much like the Jurkat cultures plus the addition of 1 mM sodium pyruvate (Gibco-Invitrogen). THP-1 cells were stimulated with 200 nM of phorbol 12-myristate 13-acetate (PMA; Sigma-Aldrich, St. Louis, Mo.) for 48 hours to differentiate the cells into macrophage-like cells. Cells were then washed three times every 24 hours with fresh medium.
# RAW cells were incubated with or without 10 mM creatinine (Sigma-Aldrich) for 24 or 48 hours. Staining was performed on cytospins which were fixed in cold acetone, air-dried, and rehydrated in phosphate buffered saline (PBS). Blocking was performed at room temperature for 20 minutes, followed by incubation with purified rat anti-mouse TNF-α antibody (BD Biosciences, San Diego, Calif.) overnight. […]
# TNF-α mRNA [2] = assay: TNF-α mRNA expression in human T cell line Jurkat clone E6-1 (real-time RT-PCR); assay type: cell-based
# Procedure: as §1
# (§2) Dose response experiments were performed following exposure of the RAW 264.7, Jurkat, and THP-1 cells to varying doses of creatinine HCl ([…]; Sigma-Aldrich). Control cultures contained no creatinine HCl, only growth medium. A dose of 10 mM creatinine HCl was chosen for use in these studies. The 10 mM concentration is physiologically relevant to individuals supplementing with 5 grams of creatine for their regimen and then converted into creatinine.
# (§3) RAW, Jurkat, and THP-1 cells were treated in 6-well plates at 80-90% confluent (4.14×10^6 cells/ml, 2.6×10^7 cells/ml, and 5.26×10^5 cells/ml, respectively). All cells were lysed in 1 ml of Trizol (Invitrogen). After homogenization, chloroform was added to samples and nucleic acids extracted per the manufacturer's instructions. Nucleic acids were precipitated with isopropyl alcohol (Fisher, Pittsburgh, Pa.). Following centrifugation, the resulting pellets were washed with 75% ethanol and air dried. RNA was re-suspended in 50 μl of UltraPure distilled water (Invitrogen). Residual DNA was removed from the samples by treatment with RQ1 DNase (Promega, Madison, Wis.) at 37° C. for 1 hour per the manufacturer's protocol. Samples were extracted with phenol:chloroform:[…] alcohol (25:24:1) (Invitrogen) and the RNA was precipitated with 1/10 volume of 3M sodium acetate (pH=5.2) and 3 volumes of 100% ethanol. Samples were frozen at […] for a minimum of 2 hours. After centrifugation, the samples were washed with 75% ethanol, air dried, and resuspended in 20 μl of UltraPure distilled water (Invitrogen) and stored at −80° C. until time of use, RNA was quantified using a NanoDrop-1000 Spectrophotometer with the program ND-1000 V3.8.1 (Thermo Fisher Scientific, Wilmington, Del.).
# (§4) Reverse transcription (Improm-II Reverse Transcription System, Promega) followed by real-time PCR analysis was performed in 20 μL volumes containing 1 μl of cDNA corresponding to 40 ng of DNase-treated RNA in the RT reaction, gene specific internal primers (0.5 μM of each primer), and 1× SsoFast EvaGreen Supermix (Bio-Rad, Hercules, Calif.). The primers were synthesized by Integrated DNA Technologies (IDT, Coralville, Iowa) and have 100% sequence homology to the […] or human genome. The primer sequences are listed below in Table 1.
# (§5) The PCR was performed using the following conditions: 95° C. for 30 sec, 40 cycles of 95° C. for 5 sec, and 57° C. for 5 sec using a CFX96 Real-Time Detection System (Bio-Rad), GAPDH was used as a housekeeping gene to normalize mRNA levels between samples. Data was analyzed using the Bio-Rad CFX Manager V1.6.541.1028 software (Bio-Rad). The calibrator in the experiments was the sample obtained from control-treated cells. Copy numbers of targeted mRNAs were expressed as ratios of GAPDH mRNA levels. Relative quantitation was determined by the comparative CT method (ΔΔCT method) in which the formula is expressed as: 2^−ΔΔCT(1).
# (§6) RT-PCR data was analyzed by two-way analysis of variance (ANOVA) with a Bonferroni's post-test. P values≤0.05 were considered statistically significant. […]
# TNF-α mRNA [3] = assay: TNF-α mRNA expression in mouse macrophage cell line RAW 264.7 (real-time RT-PCR); assay type: cell-based
# Procedure: as §1, §2, §3, §4, §5, §6
# fungi = settings: cited from earlier work
# TLR-3 = settings: mouse macrophages; cited from earlier work
# [4] = tested on: vancomycin resistant Enterococcus faecium (“VRE”); settings: addition to a growth medium; cited from earlier work
# TLR-7 = settings: mouse macrophages; cited from earlier work
# TNF-α mRNA [5] = assay: TNF-α mRNA expression in human macrophage cell line THP-1 (real-time RT-PCR); assay type: cell-based
# Procedure: as §1, §2
# RAW, Jurkat, and THP-1 cells were treated in 6-well plates at 80-90% confluent (4.14×10^6 cells/ml, 2.6×10^7 cells/ml, and 5.26×10^5 cells/ml, respectively). All cells were lysed in 1 ml of Trizol (Invitrogen). After homogenization, chloroform was added to samples and nucleic acids extracted per the manufacturer's instructions. Nucleic acids were precipitated with isopropyl alcohol (Fisher, Pittsburgh, Pa.). Following centrifugation, the resulting pellets were washed with 75% ethanol and air dried. […] After centrifugation, the samples were washed with 75% ethanol, air dried, and resuspended in 20 μl of UltraPure distilled water (Invitrogen) and stored at −80° C. until time of use, RNA was quantified using a NanoDrop-1000 Spectrophotometer with the program ND-1000 V3.8.1 (Thermo Fisher Scientific, Wilmington, Del.). […]
# The PCR was performed using the following conditions: 95° C. for 30 sec, 40 cycles of 95° C. for 5 sec, and 57° C. for 5 sec using a CFX96 Real-Time Detection System (Bio-Rad), GAPDH was used as a housekeeping gene to normalize mRNA levels between samples. Data was analyzed using the Bio-Rad CFX Manager V1.6.541.1028 software (Bio-Rad). […] Copy numbers of targeted mRNAs were expressed as ratios of GAPDH mRNA levels. Relative quantitation was determined by the comparative CT method (ΔΔCT method) in which the formula is expressed as: 2^−ΔΔCT(1).
# RT-PCR data was analyzed by two-way analysis of variance (ANOVA) with a Bonferroni's post-test. […]
# [6] = tested on: Gram negative and Gram positive bacteria; settings: addition to a growth medium; cited from earlier work
# [7] = rats, acute or chronic inflammation induced by inflammatory agents, different doses; cited from earlier work
compound,measurement,setting,value
"CN1CC(=O)N=C1N.Cl [creatinine HCl, creatinine hydrochloride]",bacteria in growth medium,[1],decreased
same,TLR-2 transcript levels,TLR-2,reduced
same,TLR-4 transcript levels,TLR-4,reduced
same,cell death,mouse macrophages,No alterations
same,TNF-α protein signal (immunohistochemical staining) compared to control-treated cells,TNF-α protein; 24 hours incubation,lower signals
same,TNF-α protein signal (immunohistochemical staining) compared to control-treated cells,TNF-α protein; 48 hours incubation,lower signals
same,"TNF-α mRNA levels, of the control level","TNF-α mRNA [2]; 10 mM, 20 minutes post-exposure, Jurkat",25%
same,TNF-α mRNA levels,"TNF-α mRNA [2]; 10 mM, 30 minutes post-exposure, Jurkat",began increasing
same,TNF-α mRNA levels,"TNF-α mRNA [2]; 10 mM, 60 minutes post-exposure, Jurkat",control levels
same,TNF-α mRNA levels compared to the levels of control,"TNF-α mRNA [2]; 10 mM, within 10 minutes of exposure, Jurkat",50%
same,reduction of mRNA levels in human T cells,"TNF-α mRNA [2]; about 10 mM, 20 minutes post-treatment",≤ 75%
same,TNF-α mRNA as compared to the control (100%),"TNF-α mRNA [3]; 10 mM, 10 minutes post-exposure, RAW 264.7",28%
same,TNF-α mRNA as compared to the control (100%),"TNF-α mRNA [3]; 10 mM, 20 minutes post-exposure, RAW 264.7",13%
same,TNF-α mRNA levels,"TNF-α mRNA [3]; 10 mM, 40 minutes post-exposure, RAW 264.7",began to increase
same,TNF-α mRNA as compared to the control (100%),"TNF-α mRNA [3]; 10 mM, 60 minutes post-exposure, RAW 264.7",47%
same,decrease of TNF-α mRNA expression in mouse macrophages,"TNF-α mRNA [3]; about 10 mM, about 10 minutes post-treatment",≥ 72%
same,reduction of TNF-α mRNA expression in mouse macrophages,"TNF-α mRNA [3]; about 10 mM, about 20 minutes post-treatment",≤ 87%
same,growth of fungi,fungi,does not affect
same,TLR-3 transcript levels,TLR-3,reduced
same,bacteria in growth medium,[4],decreased
same,TLR-7 transcript levels,TLR-7,reduced
same,"TNF-α mRNA levels, of the control levels","TNF-α mRNA [5]; 10 mM, 10 minutes post-exposure, THP-1",41%
same,TNF-α mRNA levels,"TNF-α mRNA [5]; 10 mM, 20 minutes post-exposure, THP-1",remained below those of control-treated cells
same,"TNF-α mRNA levels, of the control levels","TNF-α mRNA [5]; 10 mM, 60 minutes post-exposure, THP-1",50%
same,bacteria in growth medium,[6],decreased
lipopolysaccharide [reference compound],TNF-α mRNA expression,"TNF-α mRNA [2]; positive control, Jurkat, not shown in graphs",significant increase
same,TNF-α mRNA expression,"TNF-α mRNA [3]; positive control, RAW 264.7, not shown in graphs",significant increase
same,TNF-α mRNA expression,"TNF-α mRNA [5]; positive control, THP-1, not shown in graphs",significant increase
CN1CC(=O)N=C1N [creatinine],Edema,[7],decreased
